As usually defined, the pEC50 is −log10 of the EC50, conventionally taken in molar units.

Structures are written as SMILES. pEC50: −log10 of the molar value. Structures can show the parent of a compound that is named as a salt.

One assay deals with NQO1 specific enzyme activity in BEAS-2B cells. Put plainly: BEAS-2B NQO1 MTT assay. In kind it is cell-based. Particulars: Homo sapiens, BEAS-2B, 48 h, BEAS-2B cells, 48 hours with compound, MTT readout; read-out: EC50 of NQO1 specific activity induction. From the text:
NAD(P)H:quinone oxidoreductase 1 (NQO1), also called DT diaphorase, is a homodimeric FAD-containing enzyme that catalyzes obligatory NAD(P)H-dependent two-electron reductions of quinones and protects cells against the toxic and neoplastic effects of free radicals and reactive oxygen species arising from one-electron reductions. The transcription of NQO1 is finely regulated by NRF2, and thus NQO1 activity is a good marker for NRF2 activation. On day one, frozen BEAS-2B cells (ATCC) are thawed in a water bath, counted, and re-suspended at a concentration of 250,000 cells/mL. Fifty microliters of cells are plated in 384 well black clear-bottomed plates. Plates are incubated at 37° C., 5% CO2 overnight. On day two, plates are centrifuged and 50 nL of compound or controls are added to the cells. Plates are then incubated at 37° C., 5% CO2 for 48 hours. On day four, medium is aspirated from the plate and crude cell lysates are made by adding 13 uL of 1× Cell Signaling Technologies lysis buffer with 1 Complete, Mini, EDTA-free Protease Inhibitor Tablet (Roche) for each 10 mL of lysis buffer. After lysis plates are incubated for 20 minutes at room temperature. Two microliters of lysate are removed for use in Cell Titer Glo assay (Promega) and MTT cocktail is prepared (Prochaska et. al. 1998) for measurement of NQO1 activity. Fifty microliters of MTT cocktail is added to each well, plate is centrifuged, and analyzed on an Envision plate reader (Perkin Elmer) using Absorbance 570 nm label for 30 minutes. Product formation is measured kinetically and the EC50 of NQO1 specific activity induction is calculated by plotting the change in absorbance (Delta OD/min) versus the log of compound concentration followed by 3-parameter fitting.
On the technique in general: Formazan colour is commonly taken as a measure of viable cells.
Regarding `Cc1ccc(C(c2ccc3c(nnn3C)c2C)C(C)(C)C(=O)O)cc1CN1Cc2cccnc2OC(C)(C)C1` (stereo not shown) [Example 23, 3-(1,4-Dimethyl-1H-benzo[d][1,2,3]triazol-5-yl)-3-(3-((2,2-dimethyl-2,3-dihydropyrido[3,2-f][1,4]oxazepin-4(5H)-yl)methyl)-4-methylphenyl)-2,2-dimethylpropanoic Acid, Trifluoroacetic Acid], the negative logarithm of the EC50 (pEC50) was 7.00 to 8.00. For the compound `CC[C@@H]1CN(Cc2cc([C@@H](c3ccc4c(nnn4C)c3C)C(C)(C)C(=O)O)ccc2C)Cc2ccccc2O1` [Example 26, (S)-3-(1,4-Dimethyl-1H-benzo[d][1,2,3]triazol-5-yl)-3-(3-(((R)-2-ethyl-2,3-dihydrobenzo[f][1,4]oxa-zepin-4(5H)-yl)methyl)-4-methylphenyl)-2,2-dimethylpropanoic acid, trifluoroacetic acid salt], the negative logarithm of the EC50 (pEC50) was 8.00 to 9.00.

With `CC[C@@H]1CN(Cc2cc([C@H](c3ccc4c(nnn4C)c3C)C(C)(C)C(=O)O)ccc2C)Cc2ccccc2O1` [Example 27, (R)-3-(1,4-Dimethyl-1H-benzo[d][1,2,3]triazol-5-yl)-3-(3-(((R)-2-ethyl-2,3-dihydrobenzo[f][1,4]oxa-zepin-4(5H)-yl)methyl)-4-methylphenyl)-2,2-dimethylpropanoic acid], the negative-log EC50 (pEC50) is 6.00 to 7.00. Regarding `CC[C@@H]1CN(Cc2cc([C@@H](c3ccc4c(nnn4C)c3C)C(C)(C)C(=O)O)ccc2C)Cc2cncc(F)c2O1` [Example 28, (S)-3-(1,4-Dimethyl-1H-benzo[d][1,2,3]triazol-5-yl)-3-(3-(((R)-2-ethyl-9-fluoro-2,3-dihydropyrido[3,4-f][1,4]oxazepin-4(5H)-yl)methyl)-4-methylphenyl)-2,2-dimethylpropanoic acid], the pEC50 is greater than 9.00.

With `CC[C@@H]1CN(Cc2cc([C@@H](c3ccc4c(nnn4C)c3C)C(C)(C)C(=O)O)ccc2C)Cc2cnc(Cl)cc2O1` [Example 29], the pEC50 is greater than 9.00. With `Cc1ccc([C@@H](c2ccc3c(nnn3C)c2C)C(C)(C)C(=O)O)cc1CN1Cc2ncccc2OC(C)(C)C1` [Example 30, formic acid salt], the negative logarithm of the EC50 (pEC50) is 8.00 to 9.00.

For the compound `CC[C@@H]1CN(Cc2cc(C(c3ccc4c(nnn4C)c3C)C(C)(C)C(=O)O)ccc2C)Cc2c(F)cccc2O1` (stereo partly drawn) [Example 31, 3-(1,4-Dimethyl-1H-benzo[d][1,2,3]triazol-5-yl)-3-(3-(((R)-2-ethyl-6-fluoro-2,3-dihydrobenzo[f][1,4]oxazepin-4(5H)-yl)methyl)-4-methylphenyl)-2,2-dimethylpropanoic Acid, Formic Acid Salt], the negative-log EC50 (pEC50) is greater than 9.00. Same read-out and setting: under `CC[C@@H]1CN(Cc2cc(C(c3ccc4c(nnn4C)c3C)C(C)(C)C(=O)O)ccc2C)Cc2cc(F)ccc2O1` (stereo partly drawn) [Example 32, 3-(1,4-Dimethyl-1H-benzo[d][1,2,3]triazol-5-yl)-3-(3-(((R)-2-ethyl-7-fluoro-2,3-dihdyrobenzo[f][1,4]oxaz-epin-4(5H)-yl)methyl)-4-methylphenyl)-2,2-dimethylpropanoic acid, formic acid salt] stands 8.00 to 9.00; under `CC[C@@H]1CN(Cc2cc(C(c3ccc4c(nnn4C)c3C)C(C)(C)C(=O)O)ccc2C)Cc2ccc(F)cc2O1` (stereo partly drawn) [Example 33, 3-(1,4-Dimethyl-1H-benzo[d][1,2,3]triazol-5-yl)-3-(3-(((R)-2-ethyl-8-fluoro-2,3-dihydrobenzo[f][1,4]oxaz-epin-4(5H)-yl)methyl)-4-methylphenyl)-2,2-dimethylpropanoic acid, formic acid salt], 7.00 to 8.00; under `CC[C@@H]1CN(Cc2cc(C(c3ccc4c(nnn4C)c3C)C(C)(C)C(=O)O)ccc2C)Cc2cccc(F)c2O1` (stereo partly drawn) [Example 34, 3-(1,4-Dimethyl-1H-benzo[d][1,2,3]triazol-5-yl)-3-(3-(((R)-2-ethyl-9-fluoro-2,3-dihydrobenzo[f][1,4]oxaz-epin-4(5H)-yl)methyl)-4-methylphenyl)-2,2-dimethylpropanoic acid, formic acid salt], 6.00 to 7.00. Consider `Cc1ccc(C(c2ccc3c(nnn3C)c2C)C(C)(C)C(=O)O)cc1CN1Cc2cccc(F)c2OC(C)(C)C1` (stereo not shown) [Example 35, 3-(1,4-Dimethyl-1H-benzo[d][1,2,3]triazol-5-yl)-3-(3-((9-fluoro-2,2-dimethyl-2,3-dihydrobenzo[f][1,4]oxaz-epin-4(5H)-yl)methyl)-4-methylphenyl)-2,2-dimethylpropanoic acid], for which the negative logarithm of the EC50 (pEC50) is 8.00 to 9.00. The same measure, in the same setting: with `CCC1Cc2c(F)cccc2CN(Cc2cc(C(c3ccc4c(nnn4C)c3C)C(C)(C)C(=O)O)ccc2C)C1` (stereo not shown) [Example 36, 3-(1,4-Dimethyl-1H-benzo[d][1,2,3]triazol-5-yl)-3-(3-((4-ethyl-6-fluoro-4,5-dihydro-1H-benzo[c]azepin-2(3H)-yl)methyl)-4-methylphenyl)-2,2-dimethylpropanoic acid] the figure was 8.00 to 9.00; with `Cc1ccc(C(c2ccc3c(nnn3C)c2C)C(C)(C)C(=O)O)cc1CN1CCCn2cncc2C1` (stereo not shown) [Example 37, 3-(3-((6,7-Dihydro-5H-imidazo[1,5-a][1,4]diazepin-8(9H)-yl)methyl)-4-methylphenyl)-3-(1,4-dimethyl-1H-benzo[d][1,2,3]triazol-5-yl)-2,2-dimethylpropanoate, Sodium salt], 5.00 to 6.00. Consider `CC[C@@H]1CN(Cc2cc([C@@H](c3ccc4c(nnn4C)c3C)[C@@H](C)C(=O)O)ccc2C)Cc2ccccc2O1` [Example 38, (2R,3S)-3-(1,4-dimethyl-1H-benzo[d][1,2,3]triazol-5-yl)-3-(3-(((R)-2-ethyl-2,3-dihydrobenzo[f][1,4]oxazepin-4(5H)-yl)methyl)-4-methylphenyl)-2-methylpropanoic Acid, Formic Acid Salt], for which the pEC50 is 7.00 to 8.00. The same measure, in the same setting: under `CC[C@@H]1CN(Cc2cc([C@H](c3ccc4c(nnn4C)c3C)[C@H](C)C(=O)O)ccc2C)Cc2ccccc2O1` [Example 39, (2S,3R)-3-(1,4-Dimethyl-1H-benzo[d][1,2,3]triazol-5-yl)-3-(3-(((R)-2-ethyl-2,3-dihydrobenzo[f][1,4]oxazepin-4(5H)-yl)methyl)-4-methylphenyl)-2-methylpropanoic Acid] stands 7.00 to 8.00. `CC[C@@H]1CN(Cc2cc([C@H](c3ccc4c(nnn4C)c3C)[C@@H](C)C(=O)O)ccc2C)Cc2ccccc2O1` [Example 40, (2R,3R)-3-(1,4-Dimethyl-1H-benzo[d][1,2,3]triazol-5-yl)-3-(3-(((R)-2-ethyl-2,3-dihydrobenzo[f][1,4]oxazepin-4(5H)-yl)methyl)-4-methylphenyl)-2-methylpropanoic Acid]: the negative-log EC50 (pEC50) was 7.00 to 8.00. For `CC[C@@H]1CN(Cc2cc([C@@H](c3ccc4c(nnn4C)c3C)[C@H](C)C(=O)O)ccc2C)Cc2ccccc2O1` [Example 41, (2S,3S)-3-(1,4-Dimethyl-1H-benzo[d][1,2,3]triazol-5-yl)-3-(3-(((R)-2-ethyl-2,3-dihydrobenzo[f][1,4]oxazepin-4(5H)-yl)methyl)-4-methylphenyl)-2-methylpropanoic Acid], the negative logarithm of the EC50 (pEC50) is 6.00 to 7.00.

In the case of `CC[C@@H]1CN(Cc2cc([C@H](c3ccc4c(nnn4C)c3C)C(C)C(=O)O)ccc2C)Cc2cc(F)ccc2O1` (stereo partly drawn) [Example 42, (3R)-3-(1,4-Dimethyl-1H-benzo[d][1,2,3]triazol-5-yl)-3-(3-(((R)-2-ethyl-7-fluoro-2,3-dihydrobenzo[f][1,4]oxazepin-4(5H)-yl)methyl)-4-methylphenyl)-2-methylpropanoic Acid, Trifluoroacetic Acid Salt], the negative-log EC50 (pEC50) is 6.00 to 7.00. Take `CC[C@@H]1CN(Cc2cc([C@@H](CC(=O)O)c3ccc4c(nnn4C)c3C)ccc2C)Cc2cnccc2O1` [Example 43, (R)-3-(1,4-Dimethyl-1H-benzo[d][1,2,3]triazol-5-yl)-3-(3-(((R)-2-ethyl-2,3-dihydropyrido[3,4-f][1,4]oxazepin-4(5H)-yl)methyl)-4-methylphenyl)propanoic Acid, Formic Acid Salt]: the negative logarithm of the EC50 (pEC50) is 5.00 to 6.00.

Regarding `Cc1ccc(C(c2ccc3c(nnn3C)c2C)C(C)(C)C(=O)O)cc1CN1CCOc2ccccc2C1` (stereo not shown) [Example 44, 3-(3-((2,3-Dihydrobenzo[f][1,4]oxazepin-4(5H)-yl)methyl)-4-methylphenyl)-3-(1,4-dimethyl-1H-benzo[d][1,2,3]triazol-5-yl)-2,2-dimethylpropanoic Acid, Formic Acid Salt], the negative-log EC50 (pEC50) is 7.00 to 8.00.

Consider `CC[C@@H]1CN(Cc2cc(C(CC(=O)O)c3cc(OC)c4c(nnn4C)c3C)ccc2C)Cc2ccccc2O1` (stereo partly drawn) [Example 45, 3-(3-(((R)-2-Ethyl-2,3-dihydrobenzo[f][1,4]oxazepin-4(5H)-yl)methyl)-4-methylphenyl)-3-(7-methoxy-1,4-dimethyl-1H-benzo[d][1,2,3]triazol-5-yl)propanoic Acid, Formic Acid Salt], for which the pEC50 is 6.00 to 7.00.

Staying with this assay, now noted: Homo sapiens, BEAS-2B, 48 h, read-out: EC50 of NQO1 specific activity induction.
As to `CC[C@@H]1CN(Cc2cc([C@@H](c3ccc4c(nnn4C)c3C)C(C)(C)C(=O)O)ccc2C)Cc2cnccc2O1` [Example 24, (S)-3-(1,4-Dimethyl-1H-benzo[d][1,2,3]triazol-5-yl)-3-(3-(((R)-2-ethyl-2,3-dihydropyrido[3,4-f][1,4]oxazepin-4(5H)-yl)methyl)-4-methylphenyl)-2,2-dimethylpropanoic Acid, Formic Acid Salt], the pEC50 is greater than 9.00.

These data come from patent US10604509B2, “Nrf2 regulators” (GlaxoSmithKline Intellectual Property Development Limited, priority 2015, dated 2020).
